Consider 2 molecules from patent EP4699605A1, “USE OF NOVEL COMPOUND FOR TREATING INTRACTABLE DISEASES” (YJ Cerapeutics Inc., priority 2023, dated 2024).

Data set [1] concerns nerve injury animal models (SCI, LSS, SNI). The data set can be described thus: Mechanical allodynia (von-Frey filaments, 50% paw withdrawal threshold) in nerve injury animal models. It is filed as in vivo, Sprague-Dawley rats. As to conditions: intraperitoneal 5 mg/kg; at 1 hour after administration. The procedure: To be used as a central nerve injury animal model, a traumatic spinal cord injury (SCI) model was prepared (FIG. 1A). Specifically, 230 to 250 g of male adult Sprague-Dawley rats were anesthetized by intraperitoneal injection of chloral hydrate (500 mg/kg), and then the back and neck regions were shaved, and the spinal cord under the back and neck regions was exposed without damaging the dura mater, and a laminectomy was performed at T9 to T10 levels. To stabilize the spine, the spinous processes of T8 and T11 were fixed, and the spine was damaged by free-falling a 10 g weight from a height of 25 mm using an NYU impactor onto the back surface of the exposed spinal cord and then the rats were left in a temperature and humidity-controlled chamber overnight while covering the muscles and skin. After surgery, the rats were subcutaneously injected with a supplement solution (5 ml, lactated ringer) and injected with antibiotics (gentamicin, 5 mg/kg, intramuscular injection) once daily for 5 days. The body weight, remaining food, and the weight of water were confirmed and recorded for all animals, and the bladder was emptied twice daily by passive bladder massage until reflex micturition was established. At this time, a Sham group was a group that was subjected to only laminectomy without damage.
To be used as a peripheral nerve injury animal model, a lumbar spinal stenosis (LSS) model was prepared (FIG. 1B). Specifically, 260 to 280 g of adult male Sprague-Dawley rats were anesthetized with intraperitoneal injection of chloral hydrate (500 mg/kg), the back region was shaved, and then the spinal plate was exposed at L4 to S2 levels. After removing the ligamentous section between L4 and L5, a trapezoidal silicone block (1.00 mm long × 1.3 to 1.2 mm wide × 1.0 mm high) was inserted into the epidural space below the L5 and L6 spinal plates without damaging the dural sac. At this time, a Sham group was a group that was subjected to only posterior […] on the animal without inserting a silicone block.
To be used as a peripheral nerve injury animal model, a sciatic nerve injury (SNI) model was prepared (FIG. 1C). Specifically, 200 to 220 g of male adult Sprague-Dawley rats were anesthetized by intraperitoneal injection of chloral hydrate (500 mg/kg), and then three terminal branches (tibial, common peroneal, and sural nerves) of the right sciatic nerve were approached, and the tibia nerve and the peroneal nerve were tightly ligated with 4-0 silk, and neurectomy was performed at a distal 3 mm position of the ligation site. At this time, a Sham group was a group that exposed only the sciatic nerve without damage.
In order to confirm a neuropathic pain inhibitory effect of YJ102 (Chemical Formula 1), a compound of the present disclosure, in the three nerve injury animal models prepared in Example 1 above, rats having pain on week 3 (SNI model) or week 4 (SCI model and LSS model) after surgery were selected and administered orally (p.o.) at 10 mg/kg or 20 mg/kg of YJ102 dissolved in a solution of DMSO, methyl pyrrolidinone, and water (1 : 1.5 : 1), or intraperitoneally injected (i.p. injection) at 1, 2, or 5 mg/kg of YJ102. In a positive control group, gabapentin or pregabalin dissolved in saline was intraperitoneally injected at a concentration of 5 mg/kg, and in a Vehicle group, the same amount of a solution of DMSO, methyl pyrrolidinone, and water was administered. Thereafter, in order to measure mechanical allodynia, the rats were located at the bottom of a transparent plastic box (10 cm × 10 cm) on top of a wire mesh (3 mm × 3 mm) and subjected to an adaptation period for approximately 20 minutes. Von-Frey filaments were applied to the soles of both paws and used with stiff nylon von-Frey monofilament series ([…], Stoelting, WoodDale, IL, USA; equivalent in grams to 0.4, 0.6, 1.0, 2.0, 4.0, 6.0, 8.0 and 15.0) with logarithmic increases in tactile (mechanical) sensitivity. […]

Data set [2] is described as follows: Observation of sedation as a side effect at high doses. It is filed as in vivo, rats.

Regarding `CC(C)C[C@H](CN)CC(=O)O` [pregabalin, reference compound], in data set [1], the “analgesic effect (mechanical allodynia)” value is on record as “significant analgesic effect”. Further, the “sedation as a side effect” value in data set [2] (20 mg/kg) is listed as “observed”.
`NCC1(CC(=O)O)CCCCC1` [gabapentin, reference compound]: the “analgesic effect (mechanical allodynia)” value in data set [1] is listed as “significant analgesic effect”. Further, the “sedation as a side effect” value in data set [2] (50 mg/kg) is reported as “observed”.
